# “And” between values parts separate entries of the source, which are not always exact repeats. Identical values can stand only once.
# Molecular target: T1, mPTPB (Mycobacterium tuberculosis, UniProt I6WXK4)
# T1 sequence (I6WXK4 1-276): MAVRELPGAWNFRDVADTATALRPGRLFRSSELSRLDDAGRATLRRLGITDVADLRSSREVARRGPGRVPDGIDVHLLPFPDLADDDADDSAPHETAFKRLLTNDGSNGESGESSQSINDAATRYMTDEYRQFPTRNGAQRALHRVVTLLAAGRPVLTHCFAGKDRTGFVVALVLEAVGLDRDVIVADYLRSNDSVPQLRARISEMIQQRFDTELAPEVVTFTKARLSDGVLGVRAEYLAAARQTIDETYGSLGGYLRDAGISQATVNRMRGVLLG
# Assay: biochemical
# Conditions: IC50 mPTPB
row,Compound,IC50
1,Cc1c(Br)cc(NC(=O)C(c2ccccc2)S(=O)(=O)O)cc1Br (centres unmarked) [Compound L319M34],0.05 to 0.2 µM and 0.055 µM
2,O=C(Nc1cccc(OCc2ccccc2)c1)C(c1ccccc1)S(=O)(=O)O (centres unmarked) [Compound L319M52],0.106 µM
3,O=C(Nc1ccc2nc(C(F)(F)F)[nH]c2c1)C(c1ccccc1)S(=O)(=O)O (centres unmarked) [Compound L319M54],0.078 µM
4,O=C(Nc1ccc(N2CCOCC2)cc1)C(c1ccccc1)S(=O)(=O)O (centres unmarked) [Compound L319M68],5 µM
5,O=C(Nc1cnc2ccccc2c1)C(c1ccccc1)S(=O)(=O)O (centres unmarked) [Compound L319M88],0.282 µM

# Molecular target: T2, HePTP (Homo sapiens, UniProt P35236)
# T2 sequence (P35236 1-360): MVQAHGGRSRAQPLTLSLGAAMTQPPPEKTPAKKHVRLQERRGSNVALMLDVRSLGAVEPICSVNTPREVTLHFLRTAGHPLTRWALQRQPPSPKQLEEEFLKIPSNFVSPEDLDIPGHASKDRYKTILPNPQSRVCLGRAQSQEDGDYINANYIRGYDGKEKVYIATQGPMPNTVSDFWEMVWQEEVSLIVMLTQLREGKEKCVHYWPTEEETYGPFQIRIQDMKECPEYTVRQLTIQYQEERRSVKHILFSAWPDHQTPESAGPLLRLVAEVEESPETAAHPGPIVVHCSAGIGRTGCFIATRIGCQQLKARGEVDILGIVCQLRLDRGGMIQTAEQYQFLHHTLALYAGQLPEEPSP
# Assay: PTP inhibition assay (pNPP)
# Type: biochemical
# Conditions: pNPP at Km, pH 7.0, 25° C.
row,Compound,IC50
1,Cc1c(Br)cc(NC(=O)C(c2ccccc2)S(=O)(=O)O)cc1Br (centres unmarked) [Compound L319M34],> 100 µM
2,O=C(Nc1cccc(OCc2ccccc2)c1)C(c1ccccc1)S(=O)(=O)O (centres unmarked) [Compound L319M52],130 µM and > 100 µM
3,O=C(Nc1ccc2nc(C(F)(F)F)[nH]c2c1)C(c1ccccc1)S(=O)(=O)O (centres unmarked) [Compound L319M54],> 200 µM
4,O=C(Nc1ccc(N2CCOCC2)cc1)C(c1ccccc1)S(=O)(=O)O (centres unmarked) [Compound L319M68],> 200 µM
5,O=C(Nc1cnc2ccccc2c1)C(c1ccccc1)S(=O)(=O)O (centres unmarked) [Compound L319M88],> 200 µM

# Molecular target: T3, PTPH1 (Homo sapiens, UniProt P26045)
# T3 sequence (P26045 1-913): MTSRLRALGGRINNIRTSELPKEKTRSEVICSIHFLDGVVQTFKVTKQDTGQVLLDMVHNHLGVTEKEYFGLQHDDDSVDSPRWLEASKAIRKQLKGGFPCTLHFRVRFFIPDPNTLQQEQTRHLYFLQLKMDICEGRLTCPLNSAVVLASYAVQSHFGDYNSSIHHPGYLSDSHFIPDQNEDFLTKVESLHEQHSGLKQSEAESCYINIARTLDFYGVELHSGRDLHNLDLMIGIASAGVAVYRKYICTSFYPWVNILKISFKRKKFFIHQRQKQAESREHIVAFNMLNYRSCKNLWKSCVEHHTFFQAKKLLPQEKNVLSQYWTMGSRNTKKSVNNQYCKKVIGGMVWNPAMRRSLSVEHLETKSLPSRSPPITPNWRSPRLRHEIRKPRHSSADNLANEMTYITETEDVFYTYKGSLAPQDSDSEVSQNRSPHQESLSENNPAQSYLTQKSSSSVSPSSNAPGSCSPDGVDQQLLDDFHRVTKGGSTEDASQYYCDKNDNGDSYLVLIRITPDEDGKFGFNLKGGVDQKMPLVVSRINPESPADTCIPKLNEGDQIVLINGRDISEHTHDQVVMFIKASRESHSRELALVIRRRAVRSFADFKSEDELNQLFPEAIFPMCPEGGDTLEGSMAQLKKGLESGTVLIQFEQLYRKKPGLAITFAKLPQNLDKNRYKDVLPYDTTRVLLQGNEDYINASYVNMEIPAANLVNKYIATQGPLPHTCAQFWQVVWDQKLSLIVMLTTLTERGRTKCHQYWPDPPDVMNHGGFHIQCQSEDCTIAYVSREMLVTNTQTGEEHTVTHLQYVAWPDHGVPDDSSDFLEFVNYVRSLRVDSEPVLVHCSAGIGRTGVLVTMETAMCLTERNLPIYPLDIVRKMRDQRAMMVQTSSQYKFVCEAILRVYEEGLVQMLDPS
# Assay: PTP inhibition assay (pNPP)
# Type: biochemical
# Conditions: not given
row,Compound,IC50 [µM]
1,O=C(Nc1cccc(OCc2ccccc2)c1)C(c1ccccc1)S(=O)(=O)O (centres unmarked) [Compound L319M52],> 200

# Molecular target: PTPγ (Homo sapiens, UniProt P23470)
# Assay: PTP inhibition assay (pNPP)
# Type: biochemical
# Conditions: not given
# Sequence of PTPγ (P23470 20-1445): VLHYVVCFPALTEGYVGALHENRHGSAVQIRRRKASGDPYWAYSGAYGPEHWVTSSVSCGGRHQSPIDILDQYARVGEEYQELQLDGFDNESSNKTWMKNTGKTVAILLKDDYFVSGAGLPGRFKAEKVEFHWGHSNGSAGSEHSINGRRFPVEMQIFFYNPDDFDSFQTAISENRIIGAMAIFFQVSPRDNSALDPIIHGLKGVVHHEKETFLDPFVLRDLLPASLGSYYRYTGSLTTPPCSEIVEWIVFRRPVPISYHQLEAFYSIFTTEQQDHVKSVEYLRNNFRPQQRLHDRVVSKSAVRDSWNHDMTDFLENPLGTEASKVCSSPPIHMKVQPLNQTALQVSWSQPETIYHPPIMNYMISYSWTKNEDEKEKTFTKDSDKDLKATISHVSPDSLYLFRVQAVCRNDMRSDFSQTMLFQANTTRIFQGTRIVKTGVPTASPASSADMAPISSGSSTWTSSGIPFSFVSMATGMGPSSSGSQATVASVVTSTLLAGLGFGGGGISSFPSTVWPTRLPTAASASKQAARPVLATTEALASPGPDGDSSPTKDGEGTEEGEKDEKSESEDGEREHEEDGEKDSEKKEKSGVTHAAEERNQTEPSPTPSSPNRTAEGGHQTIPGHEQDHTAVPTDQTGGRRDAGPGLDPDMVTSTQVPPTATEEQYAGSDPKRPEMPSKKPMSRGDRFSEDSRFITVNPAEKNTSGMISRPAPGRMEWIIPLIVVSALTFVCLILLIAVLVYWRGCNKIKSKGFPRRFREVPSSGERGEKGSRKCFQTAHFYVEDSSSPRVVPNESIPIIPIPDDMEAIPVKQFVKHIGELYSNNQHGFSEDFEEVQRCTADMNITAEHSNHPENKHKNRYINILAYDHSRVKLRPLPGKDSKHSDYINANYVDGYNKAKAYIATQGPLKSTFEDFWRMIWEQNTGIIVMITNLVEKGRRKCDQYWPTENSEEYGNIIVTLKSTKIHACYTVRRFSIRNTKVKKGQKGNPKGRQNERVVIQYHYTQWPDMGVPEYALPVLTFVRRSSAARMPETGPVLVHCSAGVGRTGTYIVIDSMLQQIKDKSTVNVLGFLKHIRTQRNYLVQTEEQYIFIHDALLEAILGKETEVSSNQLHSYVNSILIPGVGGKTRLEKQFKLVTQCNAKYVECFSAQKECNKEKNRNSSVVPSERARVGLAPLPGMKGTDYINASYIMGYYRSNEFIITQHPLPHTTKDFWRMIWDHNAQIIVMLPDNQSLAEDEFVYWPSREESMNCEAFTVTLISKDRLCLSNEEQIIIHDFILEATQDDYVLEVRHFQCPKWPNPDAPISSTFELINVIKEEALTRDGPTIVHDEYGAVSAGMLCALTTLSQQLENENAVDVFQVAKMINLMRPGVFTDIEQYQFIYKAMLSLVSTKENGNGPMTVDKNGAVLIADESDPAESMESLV
row,Compound,IC50 [µM]
1,O=C(Nc1cccc(OCc2ccccc2)c1)C(c1ccccc1)S(=O)(=O)O (centres unmarked) [Compound L319M52],> 200
2,O=C(Nc1ccc2nc(C(F)(F)F)[nH]c2c1)C(c1ccccc1)S(=O)(=O)O (centres unmarked) [Compound L319M54],> 200
3,O=C(Nc1ccc(N2CCOCC2)cc1)C(c1ccccc1)S(=O)(=O)O (centres unmarked) [Compound L319M68],> 200
4,O=C(Nc1cnc2ccccc2c1)C(c1ccccc1)S(=O)(=O)O (centres unmarked) [Compound L319M88],> 200

# Molecular target: T4, VHX (Homo sapiens, UniProt Q9NRW4)
# T4 sequence (Q9NRW4 1-184): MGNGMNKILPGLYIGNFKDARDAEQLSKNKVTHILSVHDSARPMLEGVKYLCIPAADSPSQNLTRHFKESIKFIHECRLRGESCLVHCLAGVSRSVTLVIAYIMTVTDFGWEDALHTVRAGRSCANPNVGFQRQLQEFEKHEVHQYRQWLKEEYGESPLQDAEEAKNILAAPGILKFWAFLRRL
# Assay: PTP inhibition assay (pNPP)
# Type: biochemical
# Conditions: IC50 VHX (second VHX line of Table 15), pNPP at Km, pH 7.0, 25° C.
row,Compound,IC50 [µM]
1,Cc1c(Br)cc(NC(=O)C(c2ccccc2)S(=O)(=O)O)cc1Br (centres unmarked) [Compound L319M34],> 200

# Same assay, conditions: IC50 VHX, pNPP at Km, pH 7.0, 25° C.
row,Compound,IC50 [µM]
1,Cc1c(Br)cc(NC(=O)C(c2ccccc2)S(=O)(=O)O)cc1Br (centres unmarked) [Compound L319M34],92

# Same assay, conditions: pNPP at Km, pH 7.0, 25° C.; read-out: IC50 VHX
row,Compound,IC50
1,O=C(Nc1cccc(OCc2ccccc2)c1)C(c1ccccc1)S(=O)(=O)O (centres unmarked) [Compound L319M52],170 µM and > 100 µM
2,O=C(Nc1ccc2nc(C(F)(F)F)[nH]c2c1)C(c1ccccc1)S(=O)(=O)O (centres unmarked) [Compound L319M54],> 200 µM
3,O=C(Nc1ccc(N2CCOCC2)cc1)C(c1ccccc1)S(=O)(=O)O (centres unmarked) [Compound L319M68],> 200 µM
4,O=C(Nc1cnc2ccccc2c1)C(c1ccccc1)S(=O)(=O)O (centres unmarked) [Compound L319M88],> 200 µM

# Same assay, conditions: pNPP at Km, pH 7.0, 25° C.; read-out: IC50 VHX (second VHX line of Table 15)
row,Compound,IC50 [µM]
1,O=C(Nc1ccc2nc(C(F)(F)F)[nH]c2c1)C(c1ccccc1)S(=O)(=O)O (centres unmarked) [Compound L319M54],> 200
2,O=C(Nc1ccc(N2CCOCC2)cc1)C(c1ccccc1)S(=O)(=O)O (centres unmarked) [Compound L319M68],> 200
3,O=C(Nc1cnc2ccccc2c1)C(c1ccccc1)S(=O)(=O)O (centres unmarked) [Compound L319M88],> 200

# Same assay, conditions: read-out: IC50 VHX; pNPP at Km, pH 7.0, 25° C.
row,Compound,IC50 [µM]
1,Cc1c(Br)cc(NC(=O)C(c2ccccc2)S(=O)(=O)O)cc1Br (centres unmarked) [Compound L319M34],92

# Molecular target: T5, VHZ (Homo sapiens, UniProt Q9BVJ7)
# T5 sequence (Q9BVJ7 1-150): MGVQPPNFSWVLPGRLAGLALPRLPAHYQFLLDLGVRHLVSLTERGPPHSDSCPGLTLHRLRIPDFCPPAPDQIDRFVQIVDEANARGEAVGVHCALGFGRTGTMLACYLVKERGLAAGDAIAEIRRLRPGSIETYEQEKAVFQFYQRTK
# Assay: PTP inhibition assay (pNPP)
# Type: biochemical
# Conditions: not given
row,Compound,IC50 [µM]
1,O=C(Nc1cccc(OCc2ccccc2)c1)C(c1ccccc1)S(=O)(=O)O (centres unmarked) [Compound L319M52],> 200
2,O=C(Nc1ccc2nc(C(F)(F)F)[nH]c2c1)C(c1ccccc1)S(=O)(=O)O (centres unmarked) [Compound L319M54],> 200

# Molecular target: T6, CDC14A (Homo sapiens, UniProt Q9UNH5)
# T6 sequence (Q9UNH5 1-594): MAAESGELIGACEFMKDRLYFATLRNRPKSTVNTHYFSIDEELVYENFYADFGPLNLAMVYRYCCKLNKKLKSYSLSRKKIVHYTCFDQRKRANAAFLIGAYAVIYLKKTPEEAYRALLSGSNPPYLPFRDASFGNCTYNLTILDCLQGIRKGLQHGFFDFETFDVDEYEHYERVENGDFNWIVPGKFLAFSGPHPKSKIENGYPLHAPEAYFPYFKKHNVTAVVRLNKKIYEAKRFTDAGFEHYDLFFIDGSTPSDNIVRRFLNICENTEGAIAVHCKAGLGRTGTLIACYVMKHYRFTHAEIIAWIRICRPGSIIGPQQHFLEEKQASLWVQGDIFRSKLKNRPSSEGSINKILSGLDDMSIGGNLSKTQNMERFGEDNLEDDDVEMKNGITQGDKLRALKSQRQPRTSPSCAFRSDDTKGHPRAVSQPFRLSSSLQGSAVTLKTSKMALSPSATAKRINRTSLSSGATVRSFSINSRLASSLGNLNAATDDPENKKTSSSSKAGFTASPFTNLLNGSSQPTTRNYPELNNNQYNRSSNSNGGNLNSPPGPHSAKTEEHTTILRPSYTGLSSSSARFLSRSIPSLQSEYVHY
# Assay: PTP inhibition assay (pNPP)
# Type: biochemical
# Conditions: not given
row,Compound,IC50 [µM]
1,O=C(Nc1cccc(OCc2ccccc2)c1)C(c1ccccc1)S(=O)(=O)O (centres unmarked) [Compound L319M52],> 200
2,O=C(Nc1ccc2nc(C(F)(F)F)[nH]c2c1)C(c1ccccc1)S(=O)(=O)O (centres unmarked) [Compound L319M54],> 200
3,O=C(Nc1ccc(N2CCOCC2)cc1)C(c1ccccc1)S(=O)(=O)O (centres unmarked) [Compound L319M68],> 200
4,O=C(Nc1cnc2ccccc2c1)C(c1ccccc1)S(=O)(=O)O (centres unmarked) [Compound L319M88],> 200

# Molecular target: PTPμ (Homo sapiens, UniProt P28827)
# Assay: PTP inhibition assay (pNPP)
# Conditions: not given
# Sequence of PTPμ (P28827 21-1452): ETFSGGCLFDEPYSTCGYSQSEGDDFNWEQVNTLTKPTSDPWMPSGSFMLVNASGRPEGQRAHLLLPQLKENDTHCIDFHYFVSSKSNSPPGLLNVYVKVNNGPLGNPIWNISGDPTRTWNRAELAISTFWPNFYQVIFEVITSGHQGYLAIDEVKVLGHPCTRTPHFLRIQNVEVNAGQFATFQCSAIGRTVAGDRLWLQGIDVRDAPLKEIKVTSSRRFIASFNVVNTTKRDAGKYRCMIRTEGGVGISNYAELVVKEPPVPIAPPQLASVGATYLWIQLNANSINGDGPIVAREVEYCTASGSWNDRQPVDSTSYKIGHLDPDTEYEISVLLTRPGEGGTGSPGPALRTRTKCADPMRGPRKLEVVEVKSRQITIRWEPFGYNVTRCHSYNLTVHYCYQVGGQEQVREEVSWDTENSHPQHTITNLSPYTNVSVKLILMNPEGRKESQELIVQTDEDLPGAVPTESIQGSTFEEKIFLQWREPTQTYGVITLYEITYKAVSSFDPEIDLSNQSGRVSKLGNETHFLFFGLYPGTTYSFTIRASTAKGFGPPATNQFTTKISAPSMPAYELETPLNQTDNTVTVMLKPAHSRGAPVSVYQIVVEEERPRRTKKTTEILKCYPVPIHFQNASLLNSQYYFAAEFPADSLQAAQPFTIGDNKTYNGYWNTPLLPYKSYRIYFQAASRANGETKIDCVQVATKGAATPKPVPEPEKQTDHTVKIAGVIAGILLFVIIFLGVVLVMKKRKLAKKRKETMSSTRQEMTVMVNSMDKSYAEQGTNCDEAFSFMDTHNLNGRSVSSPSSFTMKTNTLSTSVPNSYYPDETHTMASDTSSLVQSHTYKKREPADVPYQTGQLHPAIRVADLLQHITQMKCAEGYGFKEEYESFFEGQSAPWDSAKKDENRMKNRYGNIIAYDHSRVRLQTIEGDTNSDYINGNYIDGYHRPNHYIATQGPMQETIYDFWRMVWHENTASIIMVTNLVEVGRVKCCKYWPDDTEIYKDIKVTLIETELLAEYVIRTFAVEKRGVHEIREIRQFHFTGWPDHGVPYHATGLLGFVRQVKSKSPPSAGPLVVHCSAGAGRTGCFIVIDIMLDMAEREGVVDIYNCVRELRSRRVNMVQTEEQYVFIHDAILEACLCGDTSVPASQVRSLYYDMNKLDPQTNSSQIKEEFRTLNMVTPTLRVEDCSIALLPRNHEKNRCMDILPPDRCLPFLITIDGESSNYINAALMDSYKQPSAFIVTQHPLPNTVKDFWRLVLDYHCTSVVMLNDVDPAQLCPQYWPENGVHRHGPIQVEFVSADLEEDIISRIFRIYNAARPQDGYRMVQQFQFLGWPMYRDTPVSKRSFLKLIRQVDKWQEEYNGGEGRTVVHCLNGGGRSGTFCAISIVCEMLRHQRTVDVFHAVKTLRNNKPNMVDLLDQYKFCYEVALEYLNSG
row,Compound,IC50 [µM]
1,O=C(Nc1cccc(OCc2ccccc2)c1)C(c1ccccc1)S(=O)(=O)O (centres unmarked) [Compound L319M52],> 200
2,O=C(Nc1ccc2nc(C(F)(F)F)[nH]c2c1)C(c1ccccc1)S(=O)(=O)O (centres unmarked) [Compound L319M54],> 200
3,O=C(Nc1ccc(N2CCOCC2)cc1)C(c1ccccc1)S(=O)(=O)O (centres unmarked) [Compound L319M68],> 200
4,O=C(Nc1cnc2ccccc2c1)C(c1ccccc1)S(=O)(=O)O (centres unmarked) [Compound L319M88],> 200
